Measurements reported in patent US20170216244A1, “METHODS FOR TREATING DIABETIC NEPHROPATHY” (YALE UNIVERSITY, priority 2014, published 2017).
Several values for one entry are separate records, joined by “and”; a condition that tells them apart may be missing. Equal values may be shown once. Entries after “also recorded” stand apart in the source; their conditions may differ.

Legend:
Sema3a^+ podocytes = assay: Podocyte morphology assay (rhodamine-phalloidin staining, cell area morphometry); type: cell-based
Procedure: Sema3a^+ podocyte cell line was described previously (Reidy et al., Am J Pathol 2013;183(4):1156-1168). Sema3a^+ podocytes were exposed to RPMI 1640 medium+1%FBS, medium+0.1 μM xanthofulvin, medium+100 ng/ml rat recombinant Sema3a (Reidy et al., Development 2009;136(23):3979-3989) or medium+xanthofulvin+Sema3a for 16 h, fixed and stained with rhodamine-phalloidin. Images were acquired (Zeiss Axiovert); podocyte area (μm^2) was measured using Zeiss AxioVision software as described (Reidy et al., Am J Pathol 2013;183(4):1156-1168), n=71±4 cells/experimental condition from 3 independent experiments were measured.

[1] = purified fungal xanthofulvin, in vivo; cited from earlier work
Sema3a = molecular target: T1, Sema3a (Homo sapiens, UniProt Q14563); details: fungal and synthetic xanthofulvin, in vitro; cited from earlier work
T1 sequence (Q14563 21-771): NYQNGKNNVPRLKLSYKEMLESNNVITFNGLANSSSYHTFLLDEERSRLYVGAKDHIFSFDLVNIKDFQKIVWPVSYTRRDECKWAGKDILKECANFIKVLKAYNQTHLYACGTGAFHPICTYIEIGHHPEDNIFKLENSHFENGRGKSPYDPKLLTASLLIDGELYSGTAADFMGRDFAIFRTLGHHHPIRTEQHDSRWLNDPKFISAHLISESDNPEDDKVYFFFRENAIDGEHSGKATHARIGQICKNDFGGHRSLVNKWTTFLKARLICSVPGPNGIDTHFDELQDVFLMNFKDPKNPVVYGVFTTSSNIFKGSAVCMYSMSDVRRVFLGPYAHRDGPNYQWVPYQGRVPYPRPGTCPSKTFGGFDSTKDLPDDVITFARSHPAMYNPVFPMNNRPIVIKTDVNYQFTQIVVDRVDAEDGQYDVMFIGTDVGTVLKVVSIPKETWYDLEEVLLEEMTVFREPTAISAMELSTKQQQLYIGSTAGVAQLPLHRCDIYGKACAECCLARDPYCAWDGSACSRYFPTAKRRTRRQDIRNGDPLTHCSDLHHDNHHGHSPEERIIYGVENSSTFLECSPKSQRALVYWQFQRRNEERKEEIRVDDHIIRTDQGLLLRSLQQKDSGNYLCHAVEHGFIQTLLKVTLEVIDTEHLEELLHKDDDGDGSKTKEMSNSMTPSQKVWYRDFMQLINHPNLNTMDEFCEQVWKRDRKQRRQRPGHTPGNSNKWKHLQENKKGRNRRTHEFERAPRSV

[2] = system: Sema3a^+ gain-of-function diabetic mice; assay: Sema3a inhibition study: xanthofulvin subcutaneous infusion in Sema3a^+ gain-of-function diabetic mice; type: in vivo, mouse
Procedure: Podocin-rtTA:tet-O-Sema3a mice, herein called Sema3a^+, generated previously (Reidy et al., Development 2009;136(23):3979-3989) were maintained in FVB genetic background for >10 generations. Diabetes was induced (low dose protocol, AMDCC.org) in 6-8 weeks old male Sema3a^+ mice by 5 daily i.p. streptozotocin (STZ) (50 mg/kg) . Diabetes (random blood glucose >300 mg/dl) was confirmed using glucose oxidase biosensor blood glucose meter (One-Touch-Ultra-2; LifeScan) one week after the last STZ injection. Diabetic Sema3a^+ (DM-Sema3a^+) (n=15) and non-diabetic Sema3a^+ (non-DM-Sema3a^+) (n=18) mice were fed doxycycline-containing diet (0.625mg/kg chow, Harlan-Teklad) or standard chow for 12-16 weeks. After 12-16 weeks of diabetes, 24 h urine was collected in metabolic cages, blood and kidneys were collected under anesthesia. For Sema3a inhibition studies, DM-Sema3a^+ mice were fed doxycycline-containing chow for 8 weeks, then Alzet osmotic pumps (Model 1004) containing xanthofulvin (0.5 mg/ml in PBS) (Ieda et al., Nat Med 2007;13(5):604-612) (n=4) or saline (n=2) were implanted subcutaneously, all mice were kept on doxycycline-containing chow for the following 4 weeks.
Urinary albumin was measured using mouse albumin ELISA (Bethyl Laboratories) and SDS-PAGE/Coomassie Blue staining as described (Reidy et al., Am J Pathol 2013;183(4):1156-1168). Plasma and 24h urine creatinine were measured by HPLC. Transmission electron microscopy (TEM) was performed using standard techniques. Glomerular area was measured using ImageJ-NIH (rsb.info.nih.gov/ij/) in 34±2.1 glomeruli/kidney from 4 mice/experimental condition. A renal pathologist (G.M.) examined PAS stained kidney specimens in blinded fashion and assigned a semiquantitative pathology score based on % area (0=none;1=1-25%;2=26-50%;3=51-75%;4=76-100%) with the following features: glomerular nodules, mesangiolysis, mesangial sclerosis and interstitial fibrosis. The percentage glomeruli/section containing mesangiolysis or nodules was calculated (Veron et al., J Am Soc Nephrol. 2014;25(8):1814-1824).

MICAL1 = assay: Podocyte MICAL1 knockdown by siRNA, immunoblot; type: cell-based, mouse; details: 200 pmol siRNA, 72 hours, cultured podocytes, densitometry
Procedure: Equal amount of protein from ≧4 kidney lysates/experimental condition were pooled and resolved by SDS-PAGE, immunoblotting was performed using standard technique with the following primary antibodies: WT1, podocin, nephrin, laminin, Sema3a (sc-28867; Santa Cruz), β3-integrin (sc-14009; Santa Cruz), β1-integrin (AB1952; EMD-Millipore), neuropilin-1 (Kolodkin et al., Cell 1997;90:753-762; Takahashi et al., Cell 1999;99(1):59-69), MMP-2 (MAB13434; EMD-Millipore), MMP-9 (AB19016; EMD-Millipore), plexinA1 (sc-25639; Santa Cruz), VEGFR-2 (2479; Cell Signaling), MICAL1 (14818-1-AP; Proteintech); actin (A2066; Sigma) or tubulin (Sigma) were used as loading controls. Signals were detected with appropriate HRP-conjugated secondary antibodies, visualized by chemiluminescence and quantified using ImageJ.
(§1) Podocyte MICAL-1 knockdown was induced using a mouse MICAL-1 siRNA oligonucleotide ([…], SEQ ID NO: 1) (Zhou et al., Mol Cell Biol 2011;31(17):3603-3615) (Dharmacon). Briefly, podocytes were transfected with 200 pmol MICAL-1 siRNA or scrambled siRNA using Oligofectamine (Invitrogen) and incubated for 72 hours. MICAL1 knockdown was confirmed by immunoblot. Podocytes with or without MICAL1 knockdown were exposed to mouse recombinant Sema3a (100 ng/ml) for 6 hours. Podocytes were fixed, permeabilized, stained with rhodamine-phalloidin, and their morphology was analyzed as described above.

podocytes = assay: Podocyte MICAL1 knockdown morphology assay; type: cell-based; details: mouse recombinant Sema3a 100 ng/ml, 6 hours
Procedure: as §1

[3] = constant subcutaneous infusion ~1.8 μg/d for 30 days

Molecule	Sema3a-induced podocyte F-actin collapse, shape change and contraction (Sema3a^+ podocytes; 0.1 μM xanthofulvin, 100 ng/ml rat recombinant Sema3a, synthetic xanthofulvin)	deleterious effects in cultured podocytes (Sema3a^+ podocytes; cultured podocytes)	functional recovery of injured spinal cord [1]	Sema3a-induced growth cone collapse (Sema3a)	GBM thickness (TEM morphometry) [2, 3]	body weight [2, 3]	creatinine clearance (renal insufficiency) [2, 3]	diabetic glomerulosclerosis phenotype by histology and TEM [2, 3]	foot process effacement / FP width (TEM morphometry) [2, 3]	plasma albumin (hypoalbuminemia) [2, 3]	side effect [2, 3]	albuminuria ([2]; constant subcutaneous infusion ~1.8 μg/d for 30 days (weeks 8-12 after diabetes onset))	decrease of MICAL1 expression (knockdown) (MICAL1)	Sema3a-induced podocyte contraction and F-actin collapse after MICAL1 knockdown (podocytes)
CC(=O)c1c(C)c(/C(O)=C2\COc3cc(O)c(O)c(C(=O)O)c3C2=O)cc2c(=O)c3c(C(=O)O)c(O)c(O)cc3oc12 [xanthofulvin]	prevented Sema3a-induced podocyte F-actin collapse, shape change and contraction; also recorded: abrogates Sema3a-induced podocyte contraction in vitro; also recorded: abrogates Sema3a-induced podocyte F-actin collapse in vitro; also recorded: abrogates Sema3a-induced podocyte F-actin collapse, shape change and contraction	no deleterious effects in cultured podocytes	promotes functional recovery of injured spinal cord	prevent Sema3a-induced growth cone collapse in vitro	significantly decreased GBM thickness; also recorded: quite normal GBM	stable body weight	abrogated renal insufficiency; also recorded: normalized	markedly attenuates the diabetic glomerulosclerosis phenotype; also recorded: abrogate the diabetic nodular glomerulosclerosis; also recorded: abrogated; also recorded: mild mesangial hypercellularity and extracellular matrix expansion	significantly decreased; also recorded: focal FPE	corrects hypoalbuminemia; also recorded: normalized	no apparent side effect	significantly decreases albuminuria; also recorded: decreased albuminuria; also recorded: improved albuminuria		
siRNA: mouse MICAL-1 siRNA oligonucleotide (CAGGUGCCAUGACUAAGUAUU, SEQ ID NO: 1) (listed as RNA, chemistry not given here; listed as Mus musculus)													73±2.6% and ~75%	not susceptible to Sema3a-induced contraction; also recorded: prevents Sema3a-induced podocyte contraction and F-actin collapse
